Assay results reported in article PMC10257196 (Journal of Pharmaceutical Analysis, 2023).

Target: alkyladenine DNA glycosylase (AAG) (Homo sapiens, UniProt P29372)
Assay: TRES coupled AAG/APE1 activity assay at […]
Type: biochemical
Conditions: read-out: % inhibition at 10 μM

alkyladenine DNA glycosylase (AAG), sequence (P29372 18-298): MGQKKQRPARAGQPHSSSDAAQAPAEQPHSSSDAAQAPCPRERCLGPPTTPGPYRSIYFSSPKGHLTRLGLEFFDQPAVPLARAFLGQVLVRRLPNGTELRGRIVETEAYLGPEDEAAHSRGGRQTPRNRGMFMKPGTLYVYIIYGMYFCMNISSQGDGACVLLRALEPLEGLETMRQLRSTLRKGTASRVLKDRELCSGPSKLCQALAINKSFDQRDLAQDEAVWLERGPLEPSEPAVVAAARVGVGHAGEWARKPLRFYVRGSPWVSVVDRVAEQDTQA

Compound O=c1c(O)c(-c2ccc(O)cc2O)oc2cc(O)cc(O)c12 [morin] has an inhibition at 10 µM of 77.5%.
